Measurements reported in patent US20100184848A1, “TRANSDERMAL FORMULATIONS OF SYNTHETIC CANNABINOIDS AND NANO COLLOIDAL SILICA” (priority 2006, published 2010).

Test system: patients in treatment for chronic neuropathic pain
Experiment: 42 patient physician-sponsored open label clinical study of the compounded transdermal formulation
Type: in vivo
Conditions: about 1/4 gm applied to site of pain twice a day; overall trial 18 months
Protocol: A number of examples of formulations of the invention were made. The formulations were used in the 42 patient open-label study of Example 2 and applied under “Cannacreme-C” 60 gm.
A 42 patient open label clinical study was performed as a physician sponsored study of patients in treatment for chronic pain with different diagnoses.
Patients ranged in age from 30 to 70 years old and were both male and female. […]
Outcome measures included a patient's own subjective report, clinician's notes, as well as questionnaires such as the McGill Pain Questionnnaire (Melzack R., Pain. 1:277-299, 1975), Fibromyalgia impact Questionnaire (Burckhardt, C. S. et al., J. Rheumatol. 18:728-733, 1991), Visual Analogue Pain Rating Scale (such as reviewed in Wewers M. E. and Lowe N. K. Res. Nursing Health 13:227-236, 1990), and Likert Pain Scales (Likert, R. Arch. Psychol. 140: 55, 1932). Objective electrophysiological monitoring including Quantitative Sensory Testing, Electromyogram, and Nerve Conduction Studies, as required from patient to patient. […]

CCCCCCC(C)(C)c1cc(O)c2c(c1)OC(C)(C)C1CCC(=O)CC21 (stereo not shown) [Nabilone, 3-(1,1-dimethylheptyl)-6,6a,7,8,10,10a-hexahydro-1-hydroxy-6,6-dimethyl-9H-dibenzo[b,d]pyran-9-one]
local site sensitization, irritation or Adverse Drug Reaction: no reports of local site sensitization or irritation
